{
  "source": "patent EP2758042B1",
  "about": "“STABLE, LOW-TOXICITY, STERILIZABLE COMPOSITION FOR OPHTHALMIC DYING” (Arcadophta, priority 2011, dated 2013)",
  "key": {"[1]": {"system": "cellules rétiniennes épithéliales ARPE-19", "test": "Cytolysis after 30 min or 5 min exposure (Example 4)", "assay_type": "cell-based", "description": "(§1) Dans cet essai, on évalue également l'influence de la présence d'eau lourde dans les solutions sur leur cytotoxicité vis-à-vis de cellules rétiniennes épithéliales ARPE-19 fournies par ATCC, dans les mêmes conditions générales que dans l'exemple 1.\n(§2) Les cellules sont exposées aux solutions 30 minutes dans une première série d'essais, et cinq minutes dans une deuxième série d'essais. Des mesures de cytolyse sont réalisées 1,5 h et 48 h après ce traitement.\n(§3) Les mêmes mesures sont effectuées à titre de comparaison sur composition de Monoblue® 0,15% commercialisée par la société Arcadophta, Toulouse, France, sur une solution d'eau oxygénée 100mM et sur une solution saline d'irrigation intraoculaire (BSS)."}, "[2]": {"system": "cellules rétiniennes épithéliales ARPE-19", "test": "Number of cells after exposure (Example 4)", "assay_type": "cell-based", "description": "as §1, §2, §3"}, "[3]": {"settings": "Exposition 5 min, culture 48 h après exposition"}, "[4]": {"settings": "Exposition 30 min, culture 1 h30 après exposition"}},
  "data": [
    {"substance": "eau oxygénée [H2O2 100mM]", "values": [
      {"measurement": "% Cellules cytolysées Moyenne", "setting": "[1]; [3]", "result": "88,3%"},
      {"measurement": "% Cellules cytolysées Moyenne", "setting": "[1]; [4]", "result": "73,63%"},
      {"measurement": "Nombre de cellules Moyenne", "setting": "[2]; [3]", "result": "129,00"},
      {"measurement": "Nombre de cellules Moyenne", "setting": "[2]; [4]", "result": "29,33"}
    ]}
  ]
}
